Target: T1, CPT II variant Y479F (Homo sapiens, UniProt P23786, Y479F)
T1 construct: made in house; host or cells: Escherichia coli BL21Gold DE
T1 sequence (P23786 26-658 Y479F): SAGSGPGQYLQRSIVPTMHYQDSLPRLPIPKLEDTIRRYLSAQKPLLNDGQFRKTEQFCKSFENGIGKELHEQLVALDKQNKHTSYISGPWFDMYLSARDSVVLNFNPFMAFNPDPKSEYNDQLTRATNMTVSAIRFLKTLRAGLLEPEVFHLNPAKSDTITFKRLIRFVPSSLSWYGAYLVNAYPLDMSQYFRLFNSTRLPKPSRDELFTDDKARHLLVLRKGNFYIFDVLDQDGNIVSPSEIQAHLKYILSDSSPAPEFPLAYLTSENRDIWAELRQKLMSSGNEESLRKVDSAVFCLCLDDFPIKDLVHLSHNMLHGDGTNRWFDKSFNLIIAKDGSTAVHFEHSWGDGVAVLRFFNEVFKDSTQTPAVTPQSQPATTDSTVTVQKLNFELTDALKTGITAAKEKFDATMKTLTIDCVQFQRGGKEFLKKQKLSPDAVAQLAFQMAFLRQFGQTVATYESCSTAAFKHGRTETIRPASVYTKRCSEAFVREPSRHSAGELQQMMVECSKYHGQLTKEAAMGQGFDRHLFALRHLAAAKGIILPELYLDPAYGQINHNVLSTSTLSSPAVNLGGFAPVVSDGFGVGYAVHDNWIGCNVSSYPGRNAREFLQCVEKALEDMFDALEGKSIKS
Assay: nanoDSF protein stability in presence of CL or β-OG
Assay type: binding
Protocol: NanoDSF is a standard method for the investigation of the folding/unfolding of proteins and the interaction of proteins with effectors/ligands/substrates
The protein stability was investigated applying nano differential scanning fluorimetry (nanoDSF) using a protein concentration of 1 mg/mL in assay buffer. […] The heating rate has been set to 1 °C per min. A heating ramp from 15 to 95 °C was determined. The nanoDSF data were obtained using a Prometheus NT.48 device. First derivatives were calculated using PR.ThermControl software (NanoTemper Technologies GmbH, Munich, Germany). Experiments were performed at least three times independently as double determination.

Cardiolipin [CL] was tested, and the “Increase of ΔTM-value due to the addition of CL” value (0.25 mM CL) was “+10 °C”, the “TM in Buffer with 0.25 mM CL” value (1 mg/mL protein) was 45.9 ± 1.0 °C and the “∆TM in Buffer with 0.25 mM CL” value (reference TM of WT in buffer (ΔTM = 0 °C)) was 9.0 ± 0.1 °C.

Reference: PMC8125234, “Cardiolipin Stabilizes and Increases Catalytic Efficiency of Carnitine Palmitoyltransferase II and Its Variants S113L, P50H, and Y479F” (International Journal of Molecular Sciences, 2021)
